In patent US12049483B2, “Selective and noncovalent inhibitors of oncogenic RAS mutants” (New York University, priority 2020, dated 2024):
Entries after “also recorded” stand apart in the source; their conditions may differ.

Columns and labels:
NRAS(WT) = target: T1, NRAS(WT) (Homo sapiens, UniProt P01111); assay: Yeast display binding titration, NRAS(WT); settings: GTPγS and GDP bound states
T1 construct: made in house; host or cells: E. coli BL21(DE3) with pBirA
Experimental: (§1) Nucleotide exchange of RAS. Purified RAS proteins used in binding experiment and crystallization were prepared by diluting stock protein (typically containing 20-250 μM RAS) 25 times with 20 mM Tris-Cl buffer pH 7.5 containing 5 mM EDTA, 0.1 mM DTT and 1 mM final concentration of a nucleotide (GDP or GTPγS). Samples were incubated at 30° C. for 30 minutes. MgCl2 was then added to the sample at a final concentration of 20 mM and the solution was further incubated on ice for at least 5 minutes prior to use.
(§2) Monobody development. General procedures for the development of monobodies against purified protein targets have been described previously. After four rounds of phage display library selection using biotinylated KRAS(G12C) at concentrations of 100 nM, 100 nM, 50 nM and 50 nM, the genes encoding monobodies from the enriched phage pool were transferred to a yeast display vector, which was used to construct yeast-display libraries. The yeast display libraries were sorted using a Bio-Rad S3e fluorescence-activated cell sorter or a […] II cell sorter (BD Biosciences). […] Single clones were then screened for selective binding to RAS mutants. The expression of monobodies on the surface of yeast cells were detected using mouse anti-VS and anti-mouse IgG-FITC conjugate. Target binding was detected with neutravidin Dylight650. Yeast cells were analyzed using an iQue flow cytometer (Sartorius). […]

KRAS(WT) = target: T2, KRAS(WT) (Homo sapiens, UniProt P01116); assay: Yeast display binding titration, KRAS(WT); settings: either nucleotide-bound form
T2 construct: KRAS4B residues 1-174 containing G12C, G12V, G12D, G13D, Q61L, WT; made in house; host or cells: E. coli BL21(DE3) with pBirA
Experimental: as §1, §2

PATU8902 tumors = assay: Mouse xenograft model, PATU8902; assay type: in vivo; settings: subcutaneous PATU8902 in nude mice; dox-induced expression after tumor size exceeded 100 mm^3
Experimental: Mouse xenograft experiments. Animal experiments were approved by NYU Langone Institutional Animal Care and Use Committee (IACUC, protocol 170602). PATU8902 or H23 cells expressing monobody under a dox-inducible promotor (5×10^6) were subcutaneously injected into athymic nude mice (Charles River). Once the average tumor size exceeded 100 mm^3, the mice were given food containing doxycycline (Envigo; TD.01306). Tumor sizes were measured using a digital caliper thrice a week along with body weight to ensure that mice were healthy through the duration of doxycycline treatment.

[1] = tested on: RAS-mediated signaling (pERK); assay: ERK activation in HEK293T cells co-expressing monobody and RAS mutants; assay type: cell-based; settings: expressed intracellularly as a genetically encoded reagent
Experimental: Transient expression of KRAS and monobody for confocal imaging and signaling experiments. HEK293T cells were cultured in glass-bottom 8-well chambers (ibidi GmbH) for colocalization assays or in a 12-well plate for signaling assays for one day prior to transfection. On the day of transfection at 70-90% confluency, media were replaced with antibiotics-free complete media (DMEM supplemented with 10% FBS). Transfection of pEGFP vectors encoding the appropriate mCherry fused monobodies and EGFP fused KRAS4B constructs was performed with lipofectamine 3000 (Thermo Fisher Scientific) and according to the manufacturer's recommended protocol. […]
Cell signaling assay and quantification of immunoblots. […] The supernatant was collected and measured for total protein amount using BCA assay (Thermo Scientific; 23227). […] The proteins were then transferred from the gel to a low fluorescence background PVDF membrane (Millipore; IPFL00010) or regular PVDF membrane (Millipore; ISEQ00010) depending on whether fluorescence or chemiluminescence detection was performed. Phospho-ERK was detected using a rabbit anti-pERK antibody (Cell Signaling; 9101S) and total ERK was detected using a rabbit anti-ERK antibody (Cell Signaling; 9102S). Monobody expression was detected using mouse anti-Flag antibody (Sigma; F3165) or anti-HA tag antibody (BioLegend; 901516). […]

T1 sequence (P01111 whole entry): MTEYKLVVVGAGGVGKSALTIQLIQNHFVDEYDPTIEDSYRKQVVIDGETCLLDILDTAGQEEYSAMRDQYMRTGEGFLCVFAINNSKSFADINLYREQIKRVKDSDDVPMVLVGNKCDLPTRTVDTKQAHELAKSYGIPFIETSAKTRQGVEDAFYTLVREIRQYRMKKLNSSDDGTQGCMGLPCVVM

- binding (KRAS(WT)): did not detectably bind
Sequence: VSSVPTKLEVVAATPTSLLISWDAPAVTVFFYVITYGETGHGVGAFQAFKVPGSKSTATISGLKPGVDYTITVYARGYSKQGPYKPSPISINYRT [12VC1]
- binding (NRAS(WT)): no binding; also recorded: did not detectably bind
- tumor growth (PATU8902 tumors): significantly reduced tumor growth
- RAS-mediated signaling [1]: potently inhibited
